Measured values as given in ChEMBL document CHEMBL4477209, “Indole-2-carboxamide-based MmpL3 Inhibitors Show Exceptional Antitubercular Activity in an Animal Model of Tuberculosis Infection” (J Med Chem, 2016).
Converted amounts (≈) assume the structure as drawn.

Columns and labels:
[1] = system: Mycobacterium tuberculosis; experiment: Inhibition of MmpL3 in clinical isolates of extensively drug resistant Mycobacterium tuberculosis R506 after 7 to 14 days by alamar blue assay
[2] = system: Mycobacterium tuberculosis; experiment: Inhibition of MmpL3 in clinical isolates of isoniazid/rifampin resistant Mycobacterium tuberculosis KZN494 after 7 to 14 days by alamar blue assay
[3] = system: Mycobacterium tuberculosis; experiment: Inhibition of MmpL3 in clinical isolates of isoniazid/rifampin resistant Mycobacterium tuberculosis V2475 after 7 to 14 days by alamar blue assay
[4] = system: Mycobacterium tuberculosis H37Rv; experiment: Inhibition of MmpL3 TSK54R mutant in Mycobacterium tuberculosis H37Rv assessed as growth inhibition
[5] = system: Mycobacterium tuberculosis; experiment: Inhibition of MmpL3 in clinical isolates of extensively drug resistant Mycobacterium tuberculosis TF274 after 7 to 14 days by alamar blue assay

SMILES	MIC [1]	MIC [2]	MIC [3]	MIC [4]	MIC [5]
C[C@@H]1[C@H]2C[C@@H](C[C@H]1NC(=O)c1cc3c(F)cc(F)cc3[nH]1)C2(C)C	12 µM (≈ 3.99 µg/mL)	12 µM (≈ 3.99 µg/mL)	47 µM (≈ 15.6 µg/mL)	0.0625 to 0.125 µg/mL (≈ 0.188 to 0.376 µM)	6 µM (≈ 1.99 µg/mL)
C[C@@H]1[C@H]2C[C@@H](C[C@H]1NC(=O)c1cc3c(Cl)cc(Cl)cc3[nH]1)C2(C)C	21 µM (≈ 7.67 µg/mL)	43 µM (≈ 15.7 µg/mL)	171 µM (≈ 62.5 µg/mL)		21 µM (≈ 7.67 µg/mL)
O=C(NC1CCCCCCC1)c1cc2c(Cl)cc(Cl)cc2[nH]1	6 µM (≈ 2.04 µg/mL)		11 µM (≈ 3.73 µg/mL)		11 µM (≈ 3.73 µg/mL)
